Earlier results as cited in US12595109B2, “Device to release water and antimicrobial vapor into an enclosed or partially enclosed space” (Arkema Inc., priority 2020, dated 2026).
Like-named read-outs stand apart in the source and are kept apart here.

What was measured:
[1] = tested on: Geobacillus stearothermophilus; settings: biological indicator, 2 mg/L gaseous H2O2
[2] = tested on: Clostridium sporogenes (Spores)
[3] = tested on: Bacillus subtilis (Spores)
[4] = Liquid solution of H2O2, c(H2O2) = 370 mg l^−1, T = 24-25° C.
[5] = VPHP, c(H2O2) = 1-2 mg l^−1, T = 24-25° C.

OO [hydrogen peroxide]
D-value [1]: 0.8 min
D-value (Bacillus (Spores); [4]): 1.5 min
D-value (Bacillus (Spores); [5]): 1 to 2 min
D-value [2, 4]: 0.8 min
D-value [2, 5]: 0.5 to 1 min
maximum exposure (ACGIH, 5 times the TLV-TWA): no more than 5 ppm
TLV (ACGIH, 8 hour TWA): 1 ppm
STEL (United Kingdom and some other countries): 2 ppm
Short Term Exposures (STELs) (Washington and Hawaii): 3 ppm
D-value [3, 4]: 2.0 to 7.3 min
D-value [3, 5]: 0.5 to 1 min
